Test results published in ChEMBL document CHEMBL5518165, “M335, a novel small-molecule STING agonist activates the immune response and exerts antitumor effects” (Eur J Med Chem, 2024).
Calls of active or inactive are those of the source. The calls are words filed in the database; no cut-off is given here.

Legend:
[1] = molecular target: Stimulator of interferon genes protein (Homo sapiens) (UniProt Q86WV6); test: Agonist activity at STING in human THP-1 cells assessed as increase in TBK1 phosphorylation incubated for 4 hrs by Western blotting analysis; type: cell-based; conditions: filed as agonist, dose 5-40 µM
Chain of Stimulator of interferon genes protein (Homo sapiens) (Q86WV6 whole entry): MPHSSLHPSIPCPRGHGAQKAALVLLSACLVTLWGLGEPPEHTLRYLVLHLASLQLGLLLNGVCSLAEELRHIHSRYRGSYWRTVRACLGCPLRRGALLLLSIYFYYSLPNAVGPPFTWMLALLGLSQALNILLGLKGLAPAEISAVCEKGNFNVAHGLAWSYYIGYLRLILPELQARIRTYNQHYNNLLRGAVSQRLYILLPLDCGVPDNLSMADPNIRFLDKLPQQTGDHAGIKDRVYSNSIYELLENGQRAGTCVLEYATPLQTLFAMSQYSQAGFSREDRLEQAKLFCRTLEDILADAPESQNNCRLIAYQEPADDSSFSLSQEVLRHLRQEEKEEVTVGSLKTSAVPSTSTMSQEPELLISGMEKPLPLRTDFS

[2] = molecular target: Stimulator of interferon genes protein (Homo sapiens) (UniProt Q86WV6); test: Agonist activity at STING in human THP-1 cells assessed as increase in IRF3 phosphorylation incubated for 4 hrs by Western blotting analysis; type: cell-based; conditions: filed as agonist, dose 5-40 µM
[3] = molecular target: Stimulator of interferon genes protein (Homo sapiens) (UniProt Q86WV6); test: Agonist activity at STING in human THP-1 cells assessed as increase in IRF3 phosphorylation at 20 uM measured for 4 hrs by Western blotting analysis; type: cell-based; conditions: filed as agonist
[4] = molecular target: Stimulator of interferon genes protein (Homo sapiens) (UniProt Q86WV6); test: Agonist activity at STING in human THP-1 cells assessed as TBK1 phosphorylation at 20 uM measured for 4 hrs in presence of H-151 by Western blotting analysis; type: cell-based
[5] = molecular target: Stimulator of interferon genes protein (Homo sapiens) (UniProt Q86WV6); test: Agonist activity at STING in human THP-1 cells assessed as increase in IFNB mRNA level at 20 uM measured for 4 hrs by qPCR analysis; type: cell-based; conditions: filed as agonist
THP-1 [6] = test: Upregulation of IFNB mRNA level in STING-knockout human THP-1 cells at 20 uM measured for 4 hrs by qPCR analysis; type: functional, cell-based
THP-1 [7] = test: Upregulation of CXCL10 mRNA level in STING-knockout human THP-1 cells at 20 uM measured for 4 hrs by qPCR analysis; type: functional, cell-based
[8] = molecular target: T1, Stimulator of interferon genes protein (Mus musculus) (UniProt Q3TBT3); test: Agonist activity at STING in MEF cells assessed as increase in STING oligomerization by Western blotting analysis; type: cell-based; conditions: filed as agonist
T1 sequence (whole entry): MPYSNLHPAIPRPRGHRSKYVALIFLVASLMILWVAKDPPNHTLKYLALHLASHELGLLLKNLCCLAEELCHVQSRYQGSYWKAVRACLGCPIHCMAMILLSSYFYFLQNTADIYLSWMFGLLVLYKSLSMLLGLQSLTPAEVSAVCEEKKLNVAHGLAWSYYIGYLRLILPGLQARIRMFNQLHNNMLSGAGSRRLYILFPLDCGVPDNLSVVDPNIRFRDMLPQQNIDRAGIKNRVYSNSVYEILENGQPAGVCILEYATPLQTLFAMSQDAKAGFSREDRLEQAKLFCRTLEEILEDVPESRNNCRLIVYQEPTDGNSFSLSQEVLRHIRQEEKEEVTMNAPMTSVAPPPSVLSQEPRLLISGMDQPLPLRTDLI

[9] = molecular target: T1, Stimulator of interferon genes protein (Mus musculus); test: Agonist activity at STING in MEF cells assessed as STING translocation by measuring aggregation of green fluorescence incubated for 1 hr by laser scanning confocal microscope analysis; type: cell-based; conditions: filed as agonist
[10] = molecular target: Stimulator of interferon genes protein (Homo sapiens) (UniProt Q86WV6); test: Binding affinity to STING CTD (unknown origin) at 3.125 to 200 uM by surface plasmon resonance analysis; conditions: filed as agonist, dose 3.125-200 µM
Human alphaherpesvirus 1 [11] = test: Antiviral activity against HSV-1-GFP infected in human THP-1 cells assessed as reduction in viral infection at 10 to 30 uM pre-infected with virus for 48 hrs followed by compound addition and measured after 6 hrs by flow cytometry analysis; type: functional, organism-based; conditions: dose 10-30 µM
Human alphaherpesvirus 1 [12] = test: Antiviral activity against HSV-1-GFP infected in human HeLa cells assessed as reduction in viral infection by fluorescent microscopy analysis; type: functional, organism-based
Human alphaherpesvirus 1 [13] = test: Antiviral activity against HSV-1-GFP infected in human STING-deficient WT HeLa cells assessed as reduction in viral infection by fluorescent microscopy analysis; type: functional, organism-based
Human alphaherpesvirus 1 [14] = test: Antiviral activity against HSV-1-GFP infected in human STING overexpressing HeLa cells assessed as reduction in viral infection by fluorescent microscopy analysis; type: functional, organism-based
[15] = Toxicity in C57/BL6 mouse allografted with mouse MC38 cells assessed as change in body weight at 300 ug, IT administered every 2 days; type: cell-based, MC-38; conditions: in vivo, other, 48 h, dose 300 µg
MC-38 [16] = test: Antitumor activity against mouse MC38 cells allografted in C57/BL6 mouse assessed as increase in CD3+ T cells in tumor tissue at 300 ug, IT administered every 2 days by flow cytometry analysis; type: functional, cell-based; conditions: dose 300.0 µg
MC-38 [17] = test: Antitumor activity against mouse MC38 cells allografted in C57/BL6 mouse assessed as increase in NK cells in spleen at 300 ug, IT administered every 2 days by flow cytometry analysis (reference value: 3.95%); type: functional; conditions: dose 300 µg, time 2 day
MC-38 [18] = test: Antitumor activity against mouse MC38 cells allografted in C57/BL6 mouse assessed as increase in NK cells in tumor tissue at 300 ug, IT administered every 2 days by flow cytometry analysis (reference value: 14%); type: functional; conditions: dose 300 µg, time 2 day
MC-38 [19] = test: Antitumor activity against mouse MC38 cells allografted in C57/BL6 mouse assessed as increase in CD8+ T cells in spleen at 300 ug, IT administered every 2 days by flow cytometry analysis (reference value: 8.80%); type: functional; conditions: dose 300 µg
MC-38 [20] = test: Antitumor activity against mouse MC38 cells allografted in C57/BL6 mouse assessed as increase in CD8+ T cell numbers in tumor tissues at 300 ug, IT administered every 2 days by immunohistochemical staining based analysis; type: functional; conditions: dose 300.0 µg
CT26 [21] = test: Antitumor activity against mouse CT26 cells allografted in […] mouse assessed as reduction in tumor development at 300 ug, IT administered every 2 days; type: functional, cell-based; conditions: dose 300.0 µg
CT26 [22] = test: Antitumor activity against mouse CT26 cells allografted in ip dosed […] mouse assessed as reduction in tumor growth administered every 2 days; type: functional, organism-based; conditions: dose 5-20 mg/kg
[23] = Toxicity in […] mouse allografted with mouse CT26 cells assessed as change in body weight at 5 to 20 mg/kg, ip administered every 2 days; type: organism-based; conditions: in vivo, 48 h, dose 5-20 mg/kg
CT26 [24] = test: Antitumor activity against mouse CT26 cells […] mouse assessed as augmentation of CD45+ cells in spleen at 20 mg/kg, ip administered every 2 days (reference value: 35.1%); type: functional; conditions: time 2 day
CT26 [25] = test: Antitumor activity against mouse CT26 cells […] mouse assessed as augmentation of CD8+ T cells in spleen at 5 mg/kg, ip administered every 2 days (reference value: 6.99%); type: functional
CT26 [26] = test: Antitumor activity against mouse CT26 cells […] mouse assessed as augmentation of CD8+ T cells in spleen at 10 mg/kg, ip administered every 2 days (reference value: 6.99%); type: functional
CT26 [27] = test: Antitumor activity against mouse CT26 cells […] mouse assessed as augmentation of CD8+ T cells in spleen at 20 mg/kg, ip administered every 2 days (reference value: 6.99%); type: functional; conditions: time 2 day
[28] = molecular target: Stimulator of interferon genes protein (Homo sapiens) (UniProt Q86WV6); test: Agonist activity at STING in human THP-1 cells at 50 uM; type: cell-based; conditions: filed as agonist
[29] = molecular target: Stimulator of interferon genes protein (Homo sapiens) (UniProt Q86WV6); test: Agonist activity at STING in human THP-1 cells assessed as upregulation of interferon stimulated genes at 20 uM by RNA sequencing analysis; type: cell-based; conditions: filed as agonist
[30] = molecular target: Stimulator of interferon genes protein (Homo sapiens) (UniProt Q86WV6); test: Agonist activity at STING in human THP-1 cells assessed as upregulation of DNA replication related genes by gene ontology analysis; type: cell-based; conditions: filed as agonist

CC(NCCC(c1ccccc1)c1ccccc1)c1ccccc1 (stereo not given) [FENDILINE]
Activity [1]: Dose-Dependent Effect | Activity [2]: Dose-Dependent Effect | Activity [3]: Active | Activity [4]: inactive | Activity [5]: Active | Activity (THP-1 [6]): inactive | Activity (THP-1 [7]): inactive | Activity [8]: Active | Activity [9]: Active | Activity [10]: Active | Activity (Human alphaherpesvirus 1 [11]): Active | Activity (Human alphaherpesvirus 1 [12]): Active | Activity (Human alphaherpesvirus 1 [13]): Active | Activity (Human alphaherpesvirus 1 [14]): Active | Activity [15]: Non-Toxic | Activity (MC-38 [16]): Active | Activity (MC-38 [17]): 5.94% | Activity (MC-38 [18]): 24% | Activity (MC-38 [19]): 14.3% | Activity (MC-38 [20]): Active | Activity (CT26 [21]): Active | Activity (CT26 [22]): Dose-Dependent Effect | Activity [23]: Non-Toxic | Activity (CT26 [24]): 76.1% | Activity (CT26 [25]): 12.7% | Activity (CT26 [26]): 15.1% | Activity (CT26 [27]): 21% | Activity [28]: Active | Activity [29]: Active | Activity [30]: Active
